The record followed here is patent US20060264460A1 (Wyeth, priority 2005, published 2006).

Bounds are passed on as bounds.

By IC50 is commonly meant the midpoint of a concentration-inhibition curve. Higher therefore signals weaker potency.

T1 sequence (P41279 30-398): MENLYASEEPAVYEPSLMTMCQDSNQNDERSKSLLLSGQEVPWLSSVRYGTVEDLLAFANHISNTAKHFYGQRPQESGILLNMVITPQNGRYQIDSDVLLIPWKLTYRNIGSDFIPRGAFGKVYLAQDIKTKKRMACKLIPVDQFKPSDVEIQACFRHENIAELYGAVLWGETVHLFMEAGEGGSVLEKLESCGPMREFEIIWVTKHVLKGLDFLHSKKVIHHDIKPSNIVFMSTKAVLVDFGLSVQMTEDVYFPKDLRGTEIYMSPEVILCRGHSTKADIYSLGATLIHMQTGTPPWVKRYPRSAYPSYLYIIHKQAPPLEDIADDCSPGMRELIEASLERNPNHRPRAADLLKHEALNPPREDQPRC

The first test addresses T1, human Cot/Tpl2 kinase (Homo sapiens, UniProt P41279).
T1 construct: human Cot/Tpl2 kinase construct encoding residues 30-398; 6His (N); made in house; host or cells: Sf9 insect cells, baculovirus system (BD Biosciences)
Put plainly: Tpl2/Cot kinase assay: GST-MEK1 phosphorylation detected by ELISA (DELFIA Eu). Conditions: 0.4 nM Tpl2, 35 nM GST-MEK1, 50 uM ATP, 1 h at 30° C. Format: biochemical. An outline of the steps:
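Substrate phosphorylation (GST-MEK1 Ser217/221) quantified by DELFIA europium ELISA, yielding IC50 values. Reaction: 1 h at 30° C, pH 7.2 MOPS buffer, 50 uM ATP, 35 nM GST-MEK1, 0.4 nM monomeric His-Tpl2 purified from Sf9 cells, compounds at 1% final DMSO; stopped with EDTA.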
`N#Cc1cnc2c(Br)cc(NCc3cnc[nH]3)cc2c1NC1CCCC1` [Example 96, 6-((1H-imidazol-5-yl)methylamino)-8-bromo-4-(cyclopentylamino)quinoline-3-carbonitrile] yielded an IC50 of 440 nM.
The compound `N#Cc1cnc2c(Br)cc(NCc3cnc(-c4ccccc4)[nH]3)cc2c1Nc1ccc(F)c(Cl)c1` [Example 106, 8-bromo-4-(3-chloro-4-fluorophenylamino)-6-((2-phenyl-1H-imidazol-5-yl)methylamino)quinoline-3-carbonitrile] showed an IC50 of 5900 nM.
`N#Cc1cnc2c(Br)cc(NCc3[nH]nnc3-c3ccccc3)cc2c1Nc1ccc(F)c(Cl)c1` [Example 311, 8-bromo-4-[(3-chloro-4-fluorophenyl)amino]-6-{[(4-phenyl-1H-1,2,3-triazol-5-yl)methyl]amino}quinoline-3-carbonitrile] yielded an IC50 of 12 nM.
`CN(C)Cc1cc(NCCN2CCOCC2)cc2c(Nc3cccc(Br)c3)c(C#N)cnc12` [Example 134, 4-(3-bromophenylamino)-8-((dimethylamino)methyl)-6-(2-morpholinoethylamino)quinoline-3-carbonitrile] registered an IC50 of over 40000 nM.
Same read-out and setting: the figure for `CN(C)C(=O)c1cc(NCCN2CCOCC2)cc2c(Nc3cccc(Cl)c3)c(C#N)cnc12` [Example 68, 4-(3-chlorophenylamino)-3-cyano-N,N-dimethyl-6-(2-morpholinoethylamino)quinoline-8-carboxamide] is 11000 nM.
Turning to `Cn1cnc(CNc2cc(Cl)c3ncc(C#N)c(Nc4ccc(F)c(Cl)c4)c3c2)c1` [Example 201, 8-chloro-4-[(3-chloro-4-fluorophenyl)amino]-6-{[(1-methyl-1H-imidazol-4-yl)methyl]amino}quinoline-3-carbonitrile], the midpoint of inhibition, the IC50, lay at 9.1 nM.
On the same count and under the same terms, in the case of `CCc1nc(C)c(CNc2ccc3ncc(C#N)c(Nc4ccc(F)c(Cl)c4)c3c2)[nH]1` [Example 23, 4-(3-Chloro-4-fluoro-phenylamino)-6-[(2-ethyl-5-methyl-3H-imidazol-4-ylmethyl)-amino]-quinoline-3-carbonitrile] it was 640 nM; in that of `Cn1ccnc1CNc1cc(C(F)(F)F)c2ncc(C#N)c(Nc3ccc(F)c(Cl)c3)c2c1` [Example 236, 4-[(3-chloro-4-fluorophenyl)amino]-6-{[(1-methyl-1H-imidazol-2-yl)methyl]amino}-8-(trifluoromethyl)quinoline-3-carbonitrile], 200 nM.
Take `N#Cc1cnc2c(Cl)cc(NCc3cc[n+]([O-])cc3)cc2c1Nc1ccc(F)c(Cl)c1` [Example 271, 8-Chloro-4-[(3-chloro-4-fluorophenyl)amino]-6-{[(1-oxidopyridin-4-yl)methyl]amino}quinoline-3-carbonitrile]: the half-inhibitory concentration (IC50) is 54 nM.
`CN(C)C(=O)c1cc(NCc2cccnc2)cc2c(Nc3ccc(F)c(Cl)c3)c(C#N)cnc12` [Example 94, 4-(3-chloro-4-fluorophenylamino)-3-cyano-N,N-dimethyl-6-(pyridin-3-ylmethylamino)quinoline-8-carboxamide] registered an IC50 of 530 nM.
On the same count and under the same terms, in the case of `Cc1cc(CNc2cc(C(F)(F)F)c3ncc(C#N)c(Nc4ccc(F)c(Cl)c4)c3c2)oc1C` [Example 238, 4-[(3-chloro-4-fluorophenyl)amino]-6-{[(4,5-dimethyl-2-furyl)methyl]amino}-8-(trifluoromethyl)quinoline-3-carbonitrile] it was 8400 nM; in that of `N#Cc1cnc2ccc(NC[C@@H]3CCCN3)cc2c1Nc1ccc(F)c(Cl)c1` [Example 43, 4-(3-Chloro-4-fluoro-phenylamino)-6-[(L-pyrrolidin-2-ylmethyl)-amino]-quinoline-3-carbonitrile], 15300 nM.
Regarding `N#Cc1ccc(CNc2cc(C(F)(F)F)c3ncc(C#N)c(Nc4ccc(F)c(Cl)c4)c3c2)cc1` [Example 234, 4-[(3-chloro-4-fluorophenyl)amino]-6-[(4-cyanobenzyl)amino]-8-(trifluoromethyl)quinoline-3-carbonitrile], the IC50 is 15100 nM.
Compound `N#Cc1cnc2ccc(NCc3cc4ccccc4[nH]3)cc2c1Nc1ccc(F)c(Cl)c1` [Example 157, 6-((1H-indol-2-yl)methylamino)-4-(3-chloro-4-fluorophenylamino)quinoline-3-carbonitrile] showed a 50% inhibitory concentration (IC50) of 8500 nM.
With `N#Cc1cnc2c(Cl)cc(NCc3[nH]cnc3CCCO)cc2c1Nc1ccc(F)c(Cl)c1` [Example 205, 8-chloro-4-[(3-chloro-4-fluorophenyl)amino]-6-({[4-(3-hydroxypropyl)-1H-imidazol-5-yl]methyl}amino)quinoline-3-carbonitrile], inhibition was half-maximal at 3.2 nM (IC50).
Regarding `N#Cc1cnc2c(Br)cc(NCc3cccnc3)cc2c1Nc1ccc(F)c(Cl)c1` [Example 77, 8-bromo-4-(3-chloro-4-fluorophenylamino)-6-(pyridin-3-ylmethylamino) quinoline-3-carbonitrile], the IC50 turned out to be 110 nM.

Still in this test, the particulars now being: Table 2; Tpl2/Cot kinase, GST-MEK1 substrate, 50 uM ATP.
`N#Cc1cnc2c(Br)cc(NCc3cn(CCCN4CCCNCC4)nn3)cc2c1Nc1ccc(F)c(Cl)c1` [Example 594] showed an IC50 of 43 nM.
With `C[Si](C)(C)c1n[nH]nc1CNc1cc(Br)c2ncc(C#N)c(Nc3ccc(F)c(Cl)c3)c2c1` [Example 435], 21 nM corresponded to half-maximal inhibition (IC50).
Still for that read-out and setting: in the case of `CONC(=O)CNc1cc(Cl)c2ncc(C#N)c(Nc3ccc(F)c(Cl)c3)c2c1` [Example 472] it was 160 nM; in that of `CON(C)C(=O)CNc1cc(Cl)c2ncc(C#N)c(Nc3ccc(F)c(Cl)c3)c2c1` [Example 471], over 40000 nM; in that of `CN1CCN(CCCn2cc(CNc3cc(Cl)c4ncc(C#N)c(Nc5ccc(F)c(Cl)c5)c4c3)nn2)CC1` [Example 627], 39 nM.
For the compound `N#Cc1cnc2c(Cl)cc(NC[C@@H]3CCCN3)cc2c1Nc1ccc(F)c(Cl)c1` [Example 619], the IC50 was over 3000 nM.
As for `COC(=O)c1cccc(CNc2ccc3ncc(C#N)c(Nc4ccc(F)c(Cl)c4)c3c2)c1` [Example 397], the half-maximal inhibitory concentration (IC50) was determined as 320 nM.
Compound `CC(=O)Nc1ccc(-n2cc(CNc3cc(Cl)c4ncc(C#N)c(Nc5ccc(F)c(Cl)c5)c4c3)nn2)cc1` [Example 634] came in with an IC50 of 35 nM.
Still for that read-out and setting: in the case of `N#Cc1cnc2c(Br)cc(NCc3cnn(-c4ccccc4)n3)cc2c1Nc1ccc(F)c(Cl)c1` [Example 434] it was over 40000 nM.
Regarding `CN(C)C(=O)OCCCn1cc(CNc2cc(Br)c3ncc(C#N)c(Nc4ccc(F)c(Cl)c4)c3c2)nn1` [Example 584], the IC50 is 3.5 nM.
Still for that read-out and setting: in the case of `COCc1nc(CNc2cc(Cl)c3ncc(C#N)c(Nc4ccc(F)c(Cl)c4)c3c2)c[nH]1` [Example 432] it was 260 nM.
Consider `CN(C)C(=O)c1cc(N)cc2c(Nc3cccc(Cl)c3)c(C#N)cnc12` [Example 359], for which the IC50 was 8400 nM.
Turning to `N#Cc1cnc2c(Cl)cc(NC3CCCC3Cl)cc2c1Nc1ccc(F)c(Cl)c1` (stereo not shown) [Example 628], the IC50 was over 3000 nM.

Still in this test, the particulars now being: Tpl2/Cot kinase, GST-MEK1 substrate, 50 uM ATP.
In turn, `N#Cc1cnc2c(Br)cc(NCc3cn(CC(F)(F)F)nn3)cc2c1Nc1ccc(F)c(Cl)c1` [Example 673] came in with an IC50 of 100 nM.
`CCN(CC1CCN(C(=O)c2cccnc2)CC1)c1cc(Cl)c2ncc(C#N)c(Nc3ccc(F)c(Cl)c3)c2c1` [Example 848] came in with an IC50 of 380 nM.
Take `CC(CNc1cc(Cl)c2ncc(C#N)c(Nc3ccc(F)c(Cl)c3)c2c1)c1ccncc1` (stereo not shown) [Example 806]: the IC50 came to 200 nM.
Still for that read-out and setting: the figure for `N#Cc1cnc2c(Cl)cc(NCc3cn(C[C@@H]4CCCN4)nn3)cc2c1Nc1ccc(F)c(Cl)c1` [Example 890] is 7.6 nM; for `CC(=O)N1CCC[C@@H]1Cn1cc(CNc2cc(Cl)c3ncc(C#N)c(Nc4ccc(F)c(Cl)c4)c3c2)nn1` [Example 898] it is 0.2 nM; for `N#Cc1cnc2c(Cl)cc(NCc3cn(CCCN4CCCCC4)nn3)cc2c1Nc1ccc(F)c(Cl)c1` [Example 712] it is 1.1 nM.
Turning to `N#Cc1cnc2c(Br)cc(NCc3cc(C4CCNCC4)n[nH]3)cc2c1Nc1ccc(F)c(Cl)c1` [Example 707], the IC50 was determined as 800 nM.
Turning to `N#Cc1cnc2c(Cl)cc(NCC(=O)Nc3cccnc3)cc2c1Nc1ccc(F)c(Cl)c1` [Example 773], the concentration for half-maximal inhibition (IC50) was 110 nM.

Staying with this test, now noted: Tpl2/Cot kinase, GST-MEK1 substrate, 50 uM ATP, 1 h at 30° C.; Table 2.
With `N#Cc1cnc2c(Cl)cc(NCc3cn(C4CCNCC4)nn3)cc2c1NC1CCCC2(CCCC2)C1` (stereo not shown) [Example 979], the IC50 turned out to be 970 nM.
Still for that read-out and setting: the figure for `CC(=O)N1CCN(CCn2cc(CNc3cc(Cl)c4ncc(C#N)c(Nc5ccc(F)c(Cl)c5)c4c3)nn2)CC1` [Example 959] is 92 nM.
`CC(C)NC1CCC(n2cc(CNc3cc(Cl)c4ncc(C#N)c(Nc5ccc(F)c(Cl)c5)c4c3)nn2)CC1` (stereo not shown) [Example 1037]: the IC50 was 20 nM.
On to `N#Cc1cnc2c(Cl)cc(N(Cc3cn(C4CCN(C(=O)OCCF)CC4)nn3)C(=O)OCCF)cc2c1Nc1ccc(F)c(Cl)c1` [Example 983], for which the IC50 was over 3000 nM.
The compound `N#Cc1cnc2c(Cl)cc(NCc3cn(CCC4CCN(CC5CC5)CC4)nn3)cc2c1Nc1ccc(F)c(Cl)c1` [Example 936] came in with an IC50 of 130 nM.
`N#Cc1cnc2c(Cl)cc(NCc3cn(C4CCCNCC4)nn3)cc2c1Nc1ccc(F)c(Cl)c1` (stereo not shown) [Example 1007] had an IC50 of 16 nM.
The same measure, in the same setting: in the case of `N#Cc1cnc2c(Cl)cc(NCC3CCCN(C(=O)CNCc4cccnc4)C3)cc2c1Nc1ccc(F)c(Cl)c1` (stereo not shown) [Example 921] it was 540 nM; in that of `N#Cc1cnc2c(Cl)cc(NCc3cn(C4CC5CCC(C4)N5CC4CC4)nn3)cc2c1Nc1ccc(F)c(Cl)c1` (stereo not shown) [Example 1057], 11 nM; in that of `N#CCn1cc(CNc2cc(Cl)c3ncc(C#N)c(Nc4ccc(F)c(Cl)c4)c3c2)nn1` [Example 1021], 430 nM.
